Data taken from PubChem BioAssay AID1919000 (Molecular Pharmacology Branch, DTP, NCI, 2023).
Blank lines part the entries; values can stand above or below the compound they belong to.

Tested on: 653999-131-R-J2-PDC complex spheroids, growth % test/control
Assay: Anticancer human tumor 653999-131-R-J2-PDC patient-derived lung adenocarcinoma cell line growth inhibition [AhR]
Conditions: for IC50: curve of first compound; for viability, T/C: stronger effect = lower value
Source text: Multicellular complex tumor spheroid response to aryl hydrocarbon receptor antagonists in combination with a variety of drugs and investigational agents in selected tumor cell lines
The current study was undertaken to assess response to aryl hydrocarbon receptor antagonists in combination with standard-of-care drugs and investigational agents in solid tumor complex spheroid models. Complex spheroids include a stromal component modeled by human endothelial cells (HUVEC) and fibroblasts modeled by human mesenchymal stem cells (MSCs). The concentration ranges selected for each drug and investigational agent were based upon clinically achievable concentrations if the clinical Cmax of the agent was known.
Compounds. The drugs and investigational agents: BAY 2416964 (NSC825713), GNF351 (NSC835774), CH-223191 (NSC835775), CPI-455 (NSC825282), aza-TdCyd (NSC777586), decitabine (NSC127716), belinostat (NSC758774), entinostat (NSC756642), pevonedistat (NSC761192), tazemetostat (NSC777109), talazoparib (NSC765396), olaparib (NSC753686), selinexor (NSC780203), nedisertib (M3814, NSC802822), bortezomib (NSC756655), venetoclax (NSC766270), doxorubicin (NSC123127), elimusertib (BAY189344, NSC800525), ceralasertib (AZD6738, NSC777638), TAK-243 (NSC785004), alisertib (NSC759677), etoposide (NSC141540), topotecan (NSC609699), eribulin (NSC707389), gemcitabine (NSC613327), carboplatin (NSC241240), cisplatin (NSC119875), and SN-38 (NSC673596) were obtained from the National Cancer Institute (NCI) Developmental Therapeutics Program Chemical Repository (32). The FDA-approved anticancer drug set is available from the Developmental Therapeutics Program at https://dtp.cancer.gov/organization/dscb/obtaining/available plates.htm. […] The stock solutions were prepared in dimethyl sulfoxide (DMSO, Sigma-Aldrich, St. Louis, MO, cat. D2650), except for the platinum compounds which were prepared in saline (Quality Biological, Gaithersburg, MD, cat. 114-055-101), at 800-fold the tested concentration and stored at -70 degrees C prior to their use. All drugs and investigational agents were tested over a range starting from a high concentration at or near the clinical Cmax and decreasing in half-log increments. If the clinical Cmax for an agent had not been determined, the highest concentration tested was 10 microM (Table 1).
Cell Culture. All cells were maintained in an incubator at 37 degrees C and 5% CO2 with 95% humidity. The PDC lines were cultured according to standard operating procedures established by the NCI PDMR (https://pdmr.cancer.gov). Briefly, all PDCs were thawed and cultured in Matrigel-coated flasks prepared with a working solution of 1X Ham's F-12 nutrient mix, without supplementation (Invitrogen, Waltham, MA, cat. 11765054), 100 U/mL penicillin-streptomycin (Invitrogen, cat. 15140122), and 2.5% Matrigel (Corning Inc., Corning, NY, cat. 354248) for the first three passages. All PDCs were cultured in complete DMEM/F-12 media containing advanced DMEM/F-12 (Invitrogen, cat. 12634028), 4.9% defined fetal bovine serum, heat inactivated (HyClone Laboratories Inc., Logan, UT, cat. SH30070.03HI), 389 ng/mL hydrocortisone (Sigma-Aldrich, cat. H4001), 9.7 ng/mL human EGF recombinant protein (Invitrogen, cat. PHG0313), 23.4 microg/mL adenine (Sigma-Aldrich, cat. A2786), 97.3 U/mL penicillin-streptomycin (Invitrogen, cat. 15140122), 1.9 mM L-glutamine (Invitrogen, cat. 25030081), and 9.7 microM Y-27632 dihydrochloride (Tocris Bioscience, Bristol, United Kingdom, cat. 1254). The PDCs were cultured in complete DMEM/F12 media without 10 microM Y-27632 dihydrochloride for at least two passages prior to the screen. The established cell lines NCI-H1341 and […] were cultured in DMEM/F-12, HEPES (Invitrogen, cat. 11330032), 5% defined fetal bovine serum (HyClone Laboratories Inc., cat. SH30070.03), ITS premix universal culture supplement [insulin (5 microg/mL), transferrin (5 microg/mL), and selenious acid (5 ng/mL)] […]

[1] = second compound 0.1 µM, first compound 0.0316 µM
[2] = second compound 0.1 µM, first compound 0.1 µM
[3] = second compound 0.316 µM, first compound 0.0316 µM
[4] = second compound 0.316 µM, first compound 0.1 µM
[5] = second compound 1 µM, first compound 0.0316 µM
[6] = second compound 1 µM, first compound 0.1 µM
[7] = second compound 3.16 µM, first compound 0.0316 µM
[8] = second compound 3.16 µM, first compound 0.1 µM
[9] = second compound 10 µM, first compound 0.0316 µM
[10] = second compound 10 µM, first compound 0.1 µM
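Also: spheroids exposed to agents for seven days.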

IC50 (second compound 0.1 µM): 20.4 nM | IC50 (second compound 0.316 µM): 20.2 nM | IC50 (second compound 1 µM): 19.6 nM | IC50 (second compound 3.16 µM): 20.7 nM | IC50 (second compound 10 µM): 22.1 nM
SMILES: CC(C)CC(NC(=O)C(Cc1ccccc1)NC(=O)c1cnccn1)B(O)O (stereo not given) + Cc1ccccc1N=Nc1ccc(NC(=O)c2ccnn2C)c(C)c1
viability, T/C (second compound 0.1 µM, first compound 0.000949 µM): 103% | viability, T/C (second compound 0.1 µM, first compound 0.003 µM): 117% | viability, T/C (second compound 0.1 µM, first compound 0.00949 µM): 82.6% | viability, T/C (second compound 0.1 µM, first compound 0.03 µM): 33.1% | viability, T/C (second compound 0.1 µM, first compound 0.0949 µM): 12.7% | viability, T/C (second compound 0.1 µM, first compound 0.3 µM): 4.4% | viability, T/C (second compound 0.316 µM, first compound 0.000949 µM): 89.7% | viability, T/C (second compound 0.316 µM, first compound 0.003 µM): 116% | viability, T/C (second compound 0.316 µM, first compound 0.00949 µM): 91% | viability, T/C (second compound 0.316 µM, first compound 0.03 µM): 28.3% | viability, T/C (second compound 0.316 µM, first compound 0.0949 µM): 10.5% | viability, T/C (second compound 0.316 µM, first compound 0.3 µM): 6.14% | viability, T/C (second compound 1 µM, first compound 0.000949 µM): 100% | viability, T/C (second compound 1 µM, first compound 0.003 µM): 108% | viability, T/C (second compound 1 µM, first compound 0.00949 µM): 87.6% | viability, T/C (second compound 1 µM, first compound 0.03 µM): 27.4% | viability, T/C (second compound 1 µM, first compound 0.0949 µM): 14.9% | viability, T/C (second compound 1 µM, first compound 0.3 µM): 6.46% | viability, T/C (second compound 3.16 µM, first compound 0.000949 µM): 97.6% | viability, T/C (second compound 3.16 µM, first compound 0.003 µM): 96.8% | viability, T/C (second compound 3.16 µM, first compound 0.00949 µM): 86.7% | viability, T/C (second compound 3.16 µM, first compound 0.03 µM): 31.8% | viability, T/C (second compound 3.16 µM, first compound 0.0949 µM): 20.8% | viability, T/C (second compound 3.16 µM, first compound 0.3 µM): 7.43% | viability, T/C (second compound 10 µM, first compound 0.000949 µM): 89.1% | viability, T/C (second compound 10 µM, first compound 0.003 µM): 98.1% | viability, T/C (second compound 10 µM, first compound 0.00949 µM): 80% | viability, T/C (second compound 10 µM, first compound 0.03 µM): 37.8% | viability, T/C (second compound 10 µM, first compound 0.0949 µM): 25.2% | viability, T/C (second compound 10 µM, first compound 0.3 µM): 11.4%

IC50 (second compound 0.1 µM): 9880 nM | IC50 (second compound 0.316 µM): > 10000 nM | IC50 (second compound 1 µM): > 10000 nM | IC50 (second compound 3.16 µM): > 10000 nM | IC50 (second compound 10 µM): 7770 nM
SMILES: COc1ccc([C@@H](O)c2cc(-c3ncnc4cc(N5CCOCC5)ccc34)c(F)cc2Cl)nn1 + Cc1ccccc1N=Nc1ccc(NC(=O)c2ccnn2C)c(C)c1
viability, T/C [1]: 101% | viability, T/C [2]: 105% | viability, T/C (second compound 0.1 µM, first compound 0.316 µM): 88.7% | viability, T/C (second compound 0.1 µM, first compound 1 µM): 74.2% | viability, T/C (second compound 0.1 µM, first compound 3.16 µM): 66% | viability, T/C (second compound 0.1 µM, first compound 10 µM): 48.6% | viability, T/C [3]: 114% | viability, T/C [4]: 114% | viability, T/C (second compound 0.316 µM, first compound 0.316 µM): 88.7% | viability, T/C (second compound 0.316 µM, first compound 1 µM): 83.6% | viability, T/C (second compound 0.316 µM, first compound 3.16 µM): 65% | viability, T/C (second compound 0.316 µM, first compound 10 µM): 51.8% | viability, T/C [5]: 96% | viability, T/C [6]: 94.5% | viability, T/C (second compound 1 µM, first compound 0.316 µM): 109% | viability, T/C (second compound 1 µM, first compound 1 µM): 87.6% | viability, T/C (second compound 1 µM, first compound 3.16 µM): 62.8% | viability, T/C (second compound 1 µM, first compound 10 µM): 54.9% | viability, T/C [7]: 96% | viability, T/C [8]: 107% | viability, T/C (second compound 3.16 µM, first compound 0.316 µM): 98.7% | viability, T/C (second compound 3.16 µM, first compound 1 µM): 88.1% | viability, T/C (second compound 3.16 µM, first compound 3.16 µM): 67.9% | viability, T/C (second compound 3.16 µM, first compound 10 µM): 54.5% | viability, T/C [9]: 89.5% | viability, T/C [10]: 101% | viability, T/C (second compound 10 µM, first compound 0.316 µM): 95.1% | viability, T/C (second compound 10 µM, first compound 1 µM): 83.6% | viability, T/C (second compound 10 µM, first compound 3.16 µM): 70.9% | viability, T/C (second compound 10 µM, first compound 10 µM): 44.2%

IC50 (second compound 0.1 µM): 77.5 nM | IC50 (second compound 0.316 µM): 79.6 nM | IC50 (second compound 1 µM): 68.2 nM | IC50 (second compound 3.16 µM): 84.9 nM | IC50 (second compound 10 µM): > 100 nM
SMILES: CC[C@@]1(O)C(=O)OCc2c1cc1n(c2=O)Cc2cc3c(CN(C)C)c(O)ccc3nc2-1 + Cc1ccccc1N=Nc1ccc(NC(=O)c2ccnn2C)c(C)c1
viability, T/C (second compound 0.1 µM, first compound 0.000316 µM): 111% | viability, T/C (second compound 0.1 µM, first compound 0.001 µM): 104% | viability, T/C (second compound 0.1 µM, first compound 0.00316 µM): 93.1% | viability, T/C (second compound 0.1 µM, first compound 0.01 µM): 87.7% | viability, T/C [1]: 63.7% | viability, T/C [2]: 45.9% | viability, T/C (second compound 0.316 µM, first compound 0.000316 µM): 95% | viability, T/C (second compound 0.316 µM, first compound 0.001 µM): 108% | viability, T/C (second compound 0.316 µM, first compound 0.00316 µM): 120% | viability, T/C (second compound 0.316 µM, first compound 0.01 µM): 88.3% | viability, T/C [3]: 63.4% | viability, T/C [4]: 46% | viability, T/C (second compound 1 µM, first compound 0.000316 µM): 101% | viability, T/C (second compound 1 µM, first compound 0.001 µM): 122% | viability, T/C (second compound 1 µM, first compound 0.00316 µM): 109% | viability, T/C (second compound 1 µM, first compound 0.01 µM): 94.5% | viability, T/C [5]: 61.6% | viability, T/C [6]: 44.2% | viability, T/C (second compound 3.16 µM, first compound 0.000316 µM): 103% | viability, T/C (second compound 3.16 µM, first compound 0.001 µM): 110% | viability, T/C (second compound 3.16 µM, first compound 0.00316 µM): 109% | viability, T/C (second compound 3.16 µM, first compound 0.01 µM): 91.7% | viability, T/C [7]: 59% | viability, T/C [8]: 48.2% | viability, T/C (second compound 10 µM, first compound 0.000316 µM): 117% | viability, T/C (second compound 10 µM, first compound 0.001 µM): 106% | viability, T/C (second compound 10 µM, first compound 0.00316 µM): 101% | viability, T/C (second compound 10 µM, first compound 0.01 µM): 82.3% | viability, T/C [9]: 65.8% | viability, T/C [10]: 57.8%
